Tests used:
Assay type in all cases: cell-based
[1] = target: androgen receptor (Homo sapiens (Human), UniProt P10275, T878A); test: Activity of reducing expression level of androgen receptor (Western blotting of LNCaP cell lysate); settings: 48 hours
Description: AR positive human prostate cancer cells LNCaP were seeded in a clear bottom 6 well microplate (BD) at 3.5×10^5/well with phenol red free RPMI1640 containing 5% FBS (hereinbelow, the medium is referred to as an evaluation medium), and then cultured overnight. The culture was added with the evaluation medium containing the compound of Examples or the compound of Comparative Examples such that the final concentration of the compound of Examples or the compound of Comparative Examples was 10000 nmol/L, followed by culture for 48 hours. After culture for 48 hours, the medium was removed and the cells were washed with PBS and added with 0.1 mL of Lysis buffer (M-PER added with Protease Inhibitor Cocktail), followed by keeping at 4° C. for 20 minutes. After cell lysis, the cell solution was centrifuged to recover the supernatant as cell lysate. […] The antibody-reacting band (anti AR receptor) was quantified by LAS-3000 (FUJIFILM) using Super Signal West Pico Substrate (Thermo Scientific) as a detection reagent.

[2] = target: human androgen receptor (Homo sapiens (Human), UniProt P10275); test: Antagonist activity for AR (pMMTV-luc reporter transcription activity in transfected COS-7 cells, DHT 1 nmol/L); settings: for IC50: 50% transcription activity inhibition concentration, COS-7 cells with pMMTV-luc and pEX-hAR, DHT 1 nmol/L, 24 hours; for antagonist activity for AR (in words): COS-7 reporter assay
human androgen receptor, sequence (P10275 whole entry): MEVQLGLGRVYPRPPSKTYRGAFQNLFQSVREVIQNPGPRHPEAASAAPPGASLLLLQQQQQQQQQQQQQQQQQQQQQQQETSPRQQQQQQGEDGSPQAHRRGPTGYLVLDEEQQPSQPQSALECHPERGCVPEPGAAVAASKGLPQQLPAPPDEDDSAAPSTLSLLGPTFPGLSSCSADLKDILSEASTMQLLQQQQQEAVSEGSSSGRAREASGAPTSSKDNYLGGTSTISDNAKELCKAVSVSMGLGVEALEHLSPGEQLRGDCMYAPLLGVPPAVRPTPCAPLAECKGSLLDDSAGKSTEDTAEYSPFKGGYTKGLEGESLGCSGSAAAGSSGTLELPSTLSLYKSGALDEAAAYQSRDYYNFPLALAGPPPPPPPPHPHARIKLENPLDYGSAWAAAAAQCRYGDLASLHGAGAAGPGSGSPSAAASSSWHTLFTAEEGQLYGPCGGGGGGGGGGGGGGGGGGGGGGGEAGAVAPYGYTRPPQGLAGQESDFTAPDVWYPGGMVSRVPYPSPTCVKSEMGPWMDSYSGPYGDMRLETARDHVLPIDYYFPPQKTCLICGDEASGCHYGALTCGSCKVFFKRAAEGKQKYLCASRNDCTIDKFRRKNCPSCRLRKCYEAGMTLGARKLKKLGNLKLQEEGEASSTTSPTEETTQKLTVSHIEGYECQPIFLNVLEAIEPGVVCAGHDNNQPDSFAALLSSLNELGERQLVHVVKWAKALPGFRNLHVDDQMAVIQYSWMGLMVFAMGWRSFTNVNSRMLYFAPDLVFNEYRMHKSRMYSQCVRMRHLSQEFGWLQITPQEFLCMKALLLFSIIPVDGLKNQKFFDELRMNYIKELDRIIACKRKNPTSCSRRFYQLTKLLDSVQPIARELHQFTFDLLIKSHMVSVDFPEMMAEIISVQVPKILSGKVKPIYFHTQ
Description: Antagonist activity for AR was evaluated according to the following method. COS-7 cells (ATCC) were transfected with pMMTV-luc vector (reporter plasmid having, as an androgen response element, […] long terminal repeat) and pEX-hAR vector (human androgen receptor expression vector: which expresses human AR gene under control of CMV promoter) by using Nucleofector (registered trademark) Kit R (Lonza) as a transfection reagent and Amaxa (Lonza). The COS-7 cells obtained after transfection were seeded in a clear bottom 96 well microplate (BD) at 1.5×10^4/well with phenol red free RPMI1640 containing 10% charcoal-treated fetal bovine serum (hereinbelow, DCC-FBS) (hereinbelow, the medium is referred to as an evaluation medium), and then cultured overnight. […] Then, the transcription activity value was measured. The transcription activity was measured by using Bright-Glo™ Luciferase Assay System (Promega).

[3] = test system: AR positive human prostate cancer cells VCaP; test: Agonist activity for AR (cell proliferation rate of VCaP cells); settings: 72 hours, 2 to 10000 nmol/L, more than 10% at any concentration = agonist activity for AR
Description: AR positive human prostate cancer cells VCaP (In Vivo 15:163-168, 2001) were seeded in a clear bottom 96 well microplate (BD) at 1.5×10^4/well with phenol red free RPMI1640 containing 5% DCC-FBS (hereinbelow, the medium is referred to as an evaluation medium), and then cultured overnight. The culture was added with the evaluation medium containing the compound of Examples or the compound of Comparative Examples (final concentration of the compound of Examples or the compound of Comparative Examples: 2, 5, 14, 41, 123, 370, 1111, 3333, or 10000 nmol/L), followed by culture for 72 hours. Then, the number of viable cells was counted (test group). As a control, the cells were cultured after being added with the evaluation medium only, and the number of viable cells was counted (control group). The number of viable cells was measured by using CellTiter-Glo™ Luminescent Cell Viability Assay (Promega). From the measured number of viable cells, cell proliferation rate with respect to the compound of Examples or the compound of Comparative Examples was calculated based on the number of viable cells measured in the case of using the evaluation medium only. Cell proliferation rate (%) =(Number of viable cells in test group−Number of viable cells in control group)/(Number of viable cells in control group)×100
By considering an error in the number of viable cells measured in the case of using the evaluation medium only, when the cell proliferation rate was more than 10% at any concentration of the 9 concentrations which had been evaluated, it was determined to have an agonist activity for AR.

androgen receptor, sequence (P10275 whole entry T878A): as the sequence (P10275 whole entry) above, with T878A counted along it

SMILES	10 μM AR expression reducing activity [1]	IC50 [2] [nM]	antagonist activity for AR (in words) [2]	Cell proliferation rate (%) [3] [%]
CC(C)Oc1ccc(Nc2nnc3n2CCN(c2ccc(C#N)c(C(F)(F)F)c2)C3)cc1 [Comparative Example 3, 4-(3-((4-Isopropoxyphenyl)amino)-5,6-dihydro[1,2,4]triazolo[4,3-a]pyrazin-7(8H)-yl)-2-(trifluoromethyl)benzonitrile, reference compound]	<10%	> 10000	no antagonist activity for AR	
FC(F)(F)c1ccc(Nc2ncnc3c2CCN(c2ncccc2Cl)C3)cc1 [Comparative Example 4, 7-(3-Chloropyridin-2-yl)-N-(4-(trifluoromethyl)phenyl)-5,6,7,8-tetrahydropyrido[3,4-d]pyrimidin-4-amine, reference compound]	<10%	> 10000	no antagonist activity for AR	
COc1ccc(Nc2ncnc3c2CCN(c2ccc(C#N)c(C(F)(F)F)c2)C3)cc1 [Example 3, 4-(4-((4-Methoxyphenyl)amino)-5,6-dihydropyrido[3,4-d]pyrimidin-7(8H)-yl)-2-(trifluoromethyl)benzonitrile]	reduced (When the AR expression reducing activity is 50% or more, it is described as “reduced”)	530		1.0
N#Cc1ccc(N2CCc3c(ncnc3Nc3cccc(-c4ccccc4)c3)C2)cc1C(F)(F)F [Example 4, 4-(4-((1,1′-Biphenyl)-3-ylamino)-5,6-dihydropyrido[3,4-d]pyrimidin-7(8H)-yl)-2-(trifluoromethyl)benzonitrile]	reduced (When the AR expression reducing activity is 50% or more, it is described as “reduced”)	620		
CC(C)(O)c1sc(Nc2ncnc3c2CCN(c2ccc(C#N)c(C(F)(F)F)c2)C3)nc1C(F)(F)F [Example 8, 4-(4-((5-(2-Hydroxypropan-2-yl)-4-(trifluoromethyl)thiazol-2-yl)amino)-5,6-dihydropyrido[3,4-d]pyrimidin-7(8H)-yl)-2-(trifluoromethyl)benzonitrile]	reduced (When the AR expression reducing activity is 50% or more, it is described as “reduced”)	250		
N#Cc1ccc(N2CCc3c(ncnc3Nc3ccc(C4(O)CC4)cn3)C2)cc1C(F)(F)F [Example 12, 4-(4-((5-(1-Hydroxycyclopropyl)pyridin-2-yl)amino)-5,6-dihydropyrido[3,4-d]pyrimidin-7(8H)-yl)-2-(trifluoromethyl)benzonitrile]	reduced (When the AR expression reducing activity is 50% or more, it is described as “reduced”)	170		
N#Cc1ccc(N2CCc3c(ncnc3Nc3nc(C(F)(F)F)c(C(=O)NCC(F)(F)F)s3)C2)cc1C(F)(F)F [Example 26, 2-((7-(4-Cyano-3-(trifluoromethyl)phenyl)-5,6,7,8-tetrahydropyrido[3,4-d]pyrimidin-4-yl)amino)-N-(2,2,2-trifluoroethyl)-4-(trifluoromethyl)thiazol-5-carboxamide]	reduced (When the AR expression reducing activity is 50% or more, it is described as “reduced”)	60		5.7
C[C@@H](NC(=O)c1sc(Nc2ncnc3c2CCN(c2ccc(C#N)c(C(F)(F)F)c2)C3)nc1C(F)(F)F)c1nnco1 [Example 37, (R)—N-(1-(1,3,4-Oxadiazol-2-yl)ethyl)-2-((7-(4-cyano-3-(trifluoromethyl)phenyl)-5,6,7,8-tetrahydropyrido[3,4-d]pyrimidin-4-yl)amino)-4-(trifluoromethyl) thiazol-5-carboxamide]	reduced (When the AR expression reducing activity is 50% or more, it is described as “reduced”)	170		0.9
C[C@@H](NC(=O)c1nnc(Nc2ncnc3c2CCN(c2ccc(C#N)c(C(F)(F)F)c2)C3)s1)c1nnco1 [Example 39, (R)—N-(1-(1,3,4-Oxadiazol-2-yl)ethyl)-5-((7-(4-cyano-3-(trifluoromethyl)phenyl)-5,6,7,8-tetrahydropyrido[3,4-d]pyrimidin-4-yl)amino)-1,3,4-thiadiazol-2-carboxamide]	reduced (When the AR expression reducing activity is 50% or more, it is described as “reduced”)	2050		5.5
CC(C)(O)c1ccc(Nc2ncnc3c2CCN(c2ccc(C#N)c(Br)c2)C3)nc1 [Example 44, 2-Bromo-4-(4-((5-(2-hydroxypropan-2-yl)pyridin-2-yl)amino)-5,6-dihydropyrido[3,4-d]pyrimidin-7(8H)-yl)benzonitrile]	reduced (When the AR expression reducing activity is 50% or more, it is described as “reduced”)	50		5.2
CC(C)(O)c1ccc(Nc2ncnc3c2CCN(c2ccc(C#N)c(Cl)c2)C3)nc1F [Example 46, 2-Chloro-4-(4-((6-fluoro-5-(2-hydroxypropan-2-yl)pyridin-2-yl)amino)-5,6-dihydropyrido[3,4-d]pyrimidin-7 (8H)-yl)benzonitrile]	reduced (When the AR expression reducing activity is 50% or more, it is described as “reduced”)	250		1.0
CC(C)(O)c1cnc(Nc2ncnc3c2CCN(c2ccc(C#N)c(C(F)(F)F)c2)C3)cc1F [Example 47, 4-(4-((4-Fluoro-5-(2-hydroxypropan-2-yl)pyridin-2-yl)amino)-5,6-dihydropyrido[3,4-d]pyrimidin-7 (8H)-yl)-2-(trifluoromethyl)benzonitrile]	reduced (When the AR expression reducing activity is 50% or more, it is described as “reduced”)	70		1.9
N#Cc1ccc(N2CCc3c(ncnc3Nc3ccc(C(=O)NCC(F)(F)F)nn3)C2)cc1Cl [Example 49, 6-((7-(3-Chloro-4-cyanophenyl)-5,6,7,8-tetrahydropyrido[3,4-d]pyrimidin-4-yl)amino)-N-(2,2,2-trifluoroethyl)pyridazine-3-carboxamide]	reduced (When the AR expression reducing activity is 50% or more, it is described as “reduced”)	2		
CC(C)(COc1ncc(Nc2ncnc3c2CCN(c2ccc(C#N)c(C(F)(F)F)c2)C3)cc1F)n1cnnn1 [Example 50, 4-(4-((5-Fluoro-6-(2-methyl-2-(1H-tetrazol-1-yl)propoxy)pyridin-3-yl)amino)-5,6-dihydropyrido[3,4-d]pyrimidin-7(8H)-yl)-2-(trifluoromethyl)benzonitrile]	reduced (When the AR expression reducing activity is 50% or more, it is described as “reduced”)	320		−3.7
CC(C)(COc1ncc(Nc2ncnc3c2CCN(c2ccc(C#N)c(C(F)(F)F)c2)C3)cc1F)n1ccnn1 [Example 51, 4-(4-((5-Fluoro-6-(2-methyl-2-(1H-1,2,3-triazol-1-yl)propoxy)pyridin-3-yl)amino)-5,6-dihydropyrido[3,4-d]pyrimidin-7(8H)-yl)-2-(trifluoromethyl)benzonitrile]	reduced (When the AR expression reducing activity is 50% or more, it is described as “reduced”)	1100		−5.4
CC(C)(O)c1ccc(Nc2ncnc3c2CCN(c2ccc(C#N)c(C(F)(F)F)c2)C3)cc1 [Example 57]	reduced (When the AR expression reducing activity is 50% or more, it is described as “reduced”)			5.0

From patent US10300067B2, “Tetrahydropyridopyrimidine compound or salt thereof” (TAIHO PHARMACEUTICAL CO., LTD., priority 2014, dated 2019)
